Reference: US20230074252A1, “DOSAGES AND METHODS FOR TREATING PULMONARY ARTERIAL HYPERTENSION WITH RODATRISTAT” (Altavant Sciences GmbH, priority 2020, published 2023)
Where “and” joins values, the source holds several entries; their conditions need not be identical. Identical values can stand only once.

Assays:
Plasma protein binding = format: in vitro ADME, human; settings: for fraction unbound: human, plasma, read-out: Plasma protein binding (fraction bound) (converted)
Description: This analysis is typically based on non-protein bound drug levels in plasma. Values for plasma protein binding (fraction bound) of rodatristat ethyl and rodatristat were 0.995 and 0.991, respectively.
(§1) Calculation of Cmax, u, portal uses plasma Cmax, fraction of an oral dose absorbed (Fa) and measured unbound fraction in blood. For rodatristat, experimentally derived values were used for Fa determined in a rat 14C study (20%) and in vitro binding to human plasma (99.1%) and blood:plasma distribution (RB, 0.72). Walsky et al proposed a threshold where the ratio of Cmax, u, portal/Ki of <0.1 is associated with low risk. […] In the rat, the RE:R is ˜3-fold higher in portal blood compared to the periphery.

[1] = Pro-drug to active ratio in portal versus peripheral blood; format: in vivo; settings: rat
Description: as §1

[2] = Metabolic stability in human hepatocytes; format: in vitro ADME; settings: 2 h incubation
Experimental: (§2) The metabolic stability of RVT-1201 was measured in vitro in hepatocytes, liver microsomes, lung microsomes, intestinal S9, lung S9, liver S9 and whole blood. The major metabolite detected in incubations with human hepatocytes was KAR5417 (KRS-02). RVT-1201 was rapidly metabolized to form KAR5417, with <5% remaining after a 2 h incubation. In heat deactivated rat hepatocytes, <5% RVT-1201 remained after 2 h incubation in the same study. Therefore, RVT-1201 metabolism (and KAR5417 formation) are not dependent on oxidative or conjugative enzymatic processes. Formation of KAR5417 from RVT-1201 is a de-esterification process, which implicates an esterase or esterases as the major mechanism. The enzyme(s) responsible for RVT-1201 metabolism to form KAR5417 has not been identified but are considered to be carboxylesterase(s). In addition, RVT-1201 metabolism and KAR5417 formation were investigated in rat and human whole blood(XT184028).

[3] = Stability in heat deactivated rat hepatocytes; format: in vitro ADME; settings: 2 h incubation
Experimental: as §2

[4] = Stability in rat whole blood; format: in vitro ADME; settings: 2 μM, 15 min
Experimental: as §2

[5] = Stability in human whole blood; format: in vitro ADME
Experimental: However, in human whole blood incubations, no loss of RVT-1201 was observed. […] Therefore, metabolism of RVT-1201 was assigned to a cytosolic carboxylesterase (CES1) within the PBPK model. Although the enzyme responsible for RVT-1201 elimination and KAR5417 formation has not been identified, CES1 was selected to represent the enzymatic metabolism of RVT-1201 for this fit-for-purpose PBPK model.

[6] = Biopharmaceutics Classification System class; format: physicochemical
Description: RVT-1201 is a Biopharmaceutics Classification System (BCS) Class II or IV molecule with in vitro permeability consistent with oral bioavailability, which has been evaluated in a Phase 1 single ascending dose (SAD)/multiple ascending dose (MAD) study using a simple immediate release (IR) drug-in-capsule formulation (Clinical Study KAR5585-101). The active pharmaceutical ingredient used in this clinical study was polymorph Form 1. An optimized/enhanced oral formulation was developed with a goal to improve patient acceptance, increase the oral bioavailability relative to the IR capsule formulation to facilitate a dose reduction, reduce inter-subject variability and to optimize a formulation process suitable for larger scale manufacture. An oral IR tablet formulation and 2 spray-dried dispersion suspensions using polymorph Form 3 were investigated in a second clinical study (Clinical Study RVT-1201-1001). The purpose of this study was to assess the performance of selected formulations following oral administration to healthy subjects.

MATE1 = target: T1, MATE1 (Homo sapiens, UniProt Q96FL8); experiment: In vitro transporter substrate assessment; format: in vitro ADME
T1 sequence (Q96FL8 1-570): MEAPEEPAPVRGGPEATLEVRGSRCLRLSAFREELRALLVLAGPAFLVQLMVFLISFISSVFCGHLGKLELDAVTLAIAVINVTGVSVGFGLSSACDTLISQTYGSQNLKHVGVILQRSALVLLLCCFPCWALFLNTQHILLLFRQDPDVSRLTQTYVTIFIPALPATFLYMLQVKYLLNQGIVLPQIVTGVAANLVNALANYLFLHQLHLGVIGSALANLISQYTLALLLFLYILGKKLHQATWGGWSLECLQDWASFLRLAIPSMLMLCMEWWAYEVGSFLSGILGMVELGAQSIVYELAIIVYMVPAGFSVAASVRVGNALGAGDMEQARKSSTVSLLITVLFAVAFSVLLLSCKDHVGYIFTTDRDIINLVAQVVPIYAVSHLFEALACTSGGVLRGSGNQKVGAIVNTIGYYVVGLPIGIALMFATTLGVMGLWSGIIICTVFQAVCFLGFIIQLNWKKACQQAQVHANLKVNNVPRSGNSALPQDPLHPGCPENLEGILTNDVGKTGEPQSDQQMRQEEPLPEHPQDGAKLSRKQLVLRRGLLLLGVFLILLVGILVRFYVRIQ
Description: (§3) Consequently, the elimination of rodatristat into bile may be impacted by co-administration with agents that are BCRP inhibitors.

[7] = Passive permeability in Caco 2 and MDCK cell studies; format: in vitro ADME
Description: as §3

CYP2C8 = target: T2, CYP2C8 (Homo sapiens, UniProt P10632); experiment: Unbound hepatic portal vein Cmax versus Ki analysis (Walsky et al); set-up: from tissue; host or cells: pooled human liver microsomes (n=200 donors)
T2 sequence (P10632 1-490): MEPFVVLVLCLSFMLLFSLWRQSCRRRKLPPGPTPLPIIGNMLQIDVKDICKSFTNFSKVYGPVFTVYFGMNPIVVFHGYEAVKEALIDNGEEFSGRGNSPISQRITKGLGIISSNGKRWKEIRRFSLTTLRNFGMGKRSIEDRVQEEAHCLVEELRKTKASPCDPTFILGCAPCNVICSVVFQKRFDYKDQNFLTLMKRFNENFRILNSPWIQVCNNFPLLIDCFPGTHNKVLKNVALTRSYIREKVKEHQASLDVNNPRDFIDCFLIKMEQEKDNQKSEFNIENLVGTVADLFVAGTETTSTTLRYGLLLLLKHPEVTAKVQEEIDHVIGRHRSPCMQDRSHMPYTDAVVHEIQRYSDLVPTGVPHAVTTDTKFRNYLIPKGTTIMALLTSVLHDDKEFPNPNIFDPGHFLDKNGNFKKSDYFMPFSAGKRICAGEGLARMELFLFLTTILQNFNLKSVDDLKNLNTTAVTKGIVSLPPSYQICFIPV
Description: Walsky, et al^i evaluated criteria to assess the potential for approved drugs to elicit clinically-meaningful drug interactions via inhibition of 2C8. Following their evaluation of 209 compounds they opined that unbound hepatic portal vein concentration (Cmax, u, portal) compared to the in vitro Ki provides additional insight beyond peripheral Cmax (used for FDA criteria) as it reflects the unbound drug concentration entering the liver.
as §1

In the case of `CCOC(=O)[C@@H]1CC2(CCN(c3cc(O[C@H](c4ccc(Cl)cc4-c4ccccc4)C(F)(F)F)nc(N)n3)CC2)CN1` [Rodatristat ethyl, (S)-ethyl 8-(2-amino-6-((R)-1-(5-chloro-[1,1′-biphenyl]-2-yl)-2,2,2-trifluoroethoxy)pyrimidin-4-yl)-2,8-diazaspiro[4.5]decane-3-carboxylate], the fraction unbound (Plasma protein binding) is reported as 0.005, the “RE:R ratio higher in portal blood compared to the periphery” value [1] is reported as about 3 fold and the “Remaining after incubation with human hepatocytes” value [2] is reported as under 5%. For the same molecule, the “Remaining after incubation in heat deactivated rat hepatocytes” value [3] was under 5%, the “Loss in rat blood” value [4] was “Complete loss” and the “Loss in human whole blood incubations” value [5] was “no loss”. The “Biopharmaceutics Classification System (BCS) Class” value [6] was “II or IV”.

With `Nc1nc(O[C@H](c2ccc(Cl)cc2-c2ccccc2)C(F)(F)F)cc(N2CCC3(CC2)CN[C@H](C(=O)O)C3)n1` [Rodatristat, (S)-8-(2-amino-6-((R)-1-(5-chloro-[1,1′-biphenyl]-2-yl)-2,2,2-trifluoroeth-oxy)pyrimidin-4-yl)-2,8-diazaspiro[4.5]decane-3-carboxylic acid] the “In vitro substrate? MATE1” value (MATE1) was “not an in vitro substrate and No”, the “In vitro binding to human plasma” value (Plasma protein binding) was 99.1% and the fraction unbound (Plasma protein binding) was 0.009. For the same molecule, the Passive permeability [7] was “very low passive permeability” and the “Cmax, u, portal/Ki” value (CYP2C8) was 0.128 and < 0.128.
